According to patent publication US20210275562A1, “CANCER TREATMENT METHODS” (priority 2020, published 2021):

What was measured:
[1] = tested on: S phase cells; assay: BRDU/EDU injection labelling of S phase cells in living animals; type: in vivo, mouse
From the text: It has been estimated in the literature that the cell cycle would be between 12 hr and 2 days in the crypt cells of the gut. These are the cells that are constantly dividing and give rise to mature gut cells forming the lining of the intestinal tract. […] Both EDU and BRDU are incorporated only into DNA of cells actively synthesizing DNA, S phase cells. Both are rapidly removed from circulation if not incorporated into DNA, so that a cell containing EDU or BRDU in its DNA would have been in S phase at the time of injection, or shortly thereafter. Indeed, an injection of either marker is effectively a 1 hr pulse with that marker. BRDU is identified with an antibody stain, while EDU is identified by a separate chemical stain. Different fluorochromes are used to identify the two stains, so that cells which incorporated either, or both, can readily be identified. With the use of our image analysis approach, the labeling with each fluorochrome can be accurately quantitated.
Thus, with EDU and BRDU, it was possible to determine which cells had been in S phase at two different times. BRDU was normally injected intraperitoneally (IP) into animals at time zero. […] 40 minutes following the EDU injection the animals were euthanized and tissues collected, imbedded in paraffin, and stained. It was possible to tell which cells had been in S phase at the beginning of the experiment from the BRDU stain. […]

[2] = tested on: crypt cells; assay: Proof of principle: two EDU injections in mice given BRDU in drinking water; type: in vivo, mouse
Method: The experiment to validate this procedure was designed as follows: Mice were given BRDU in their drinking water at the beginning of the experiments. This constant supply of BRDU would label all proliferative cells over the length of the experiment. 4 hr after BRDU-containing drinking water was given to the animals, two injections of EDU were given. These injections were spaced 5, 8, 11, 14, 17, and 20 hr apart in separate animals. At 40 min following the final injection tissue was collected, fixed, imbedded, stained, and analyzed as described above. The goal was to determine how many cells were labeled with BRDU and NOT WITH EDU. EDU in this experiment represents the toxic treatment. Any cell labelled with EDU would be expected to be killed by the appropriate S phase specific toxin. The surviving cells would, therefore, be identified by BRDU positive, EDU negative cells. As with many proof of principle experiments, this one has a drawback that must be considered. BRDU remains present in cells that differentiate and move up the villi towards the lumen of the gut. Cells on the verge of terminal differentiation would be labelled with BRDU but cease dividing prior to the administration of EDU. This would result in an over-estimate of the number of BRDU+ and EDU− cells (those that survive the treatments), particularly at later times in the analysis. […]

effective pulse length of the marker after one injection ([1]; mouse, in vivo) [h] | SMILES | effective pulse length of the marker after one injection ([1]; rapidly removed from circulation if not incorporated into DNA) [h] | BRDU positive cells remaining unlabeled with EDU (cells proposed to survive treatment) ([2]; two EDU injections spaced 14 hr apart) [%] | level of BRDU+ and EDU- cells (cells proposed to survive treatment) ([2]; two EDU injections spaced 17 hr apart, may be overestimated)
– | C#Cc1cn([C@H]2C[C@H](O)[C@@H](CO)O2)c(=O)[nH]c1=O [EDU, 5-ethynyl-2′-deoxyuridine] | 1 | ~40 | remain high
1 | O=c1[nH]c(=O)n([C@H]2C[C@H](O)[C@@H](CO)O2)cc1Br [BRDU, bromodeoxyuridine] | – | – | –
